Source: ChEMBL document CHEMBL1143799, “Synthesis and primary cytotoxicity evaluation of new imidazo[2,1-b]thiazole derivatives” (2007)

Legend:
Format in all cases: functional
MOLT-4 = experiment: Growth inhibition of human MOLT4 cells after 48 hrs by SRB protein assay; details: MOLT-4, 48 h
RPMI-8226 = experiment: Growth inhibition of human RPMI8226 cells after 48 hrs by SRB protein assay; details: RPMI-8226, 48 h
A549 = experiment: Growth inhibition of human A549 cells after 48 hrs by SRB protein assay; details: A549, 48 h
EKVX = experiment: Growth inhibition of human EKVX cells after 48 hrs by SRB protein assay
NCI-H23 = experiment: Growth inhibition of human NCI-H23 cells after 48 hrs by SRB protein assay; details: NCI-H23, 48 h
NCI-H460 = experiment: Growth inhibition of human NCI-H460 cells after 48 hrs by SRB protein assay; details: NCI-H460, 48 h
NCI-H522 = experiment: Growth inhibition of human NCI-H522 cells after 48 hrs by SRB protein assay; details: NCI-H522, 48 h
COLO 205 = experiment: Growth inhibition of human COLO205 cells after 48 hrs by SRB protein assay; details: COLO 205, 48 h
HCC 2998 = experiment: Growth inhibition of human HCC2998 cells after 48 hrs by SRB protein assay; details: HCC 2998, 48 h
HCT-116 = experiment: Growth inhibition of human HCT116 cells after 48 hrs by SRB protein assay; details: HCT-116, 48 h
HT-29 = experiment: Growth inhibition of human HT29 cells after 48 hrs by SRB protein assay; details: HT-29, 48 h
KM12 = experiment: Growth inhibition of human KM12 cells after 48 hrs by SRB protein assay; details: KM12, 48 h
SW-620 = experiment: Growth inhibition of human SW620 cells after 48 hrs by SRB protein assay; details: SW-620, 48 h
SF-539 = experiment: Growth inhibition of human SF539 cells after 48 hrs by SRB protein assay; details: SF-539, 48 h
SNB-75 = experiment: Growth inhibition of human SNB75 cells after 48 hrs by SRB protein assay; details: SNB-75, 48 h
U-251 = experiment: Growth inhibition human U251 of cells after 48 hrs by SRB protein assay; details: U-251, 48 h
M14 = experiment: Growth inhibition of human M14 cells after 48 hrs by SRB protein assay; details: M14, 48 h
SK-MEL-2 = experiment: Growth inhibition of human SK-MEL-2 cells after 48 hrs by SRB protein assay; details: SK-MEL-2, 48 h
UACC-257 = experiment: Growth inhibition of human UACC257 cells after 48 hrs by SRB protein assay; details: UACC-257, 48 h
UACC-62 = experiment: Growth inhibition of human UACC62 cells after 48 hrs by SRB protein assay; details: UACC-62, 48 h
IGROV-1 = experiment: Growth inhibition of human IGROV1 cells after 48 hrs by SRB protein assay; details: IGROV-1, 48 h
OVCAR-3 = experiment: Growth inhibition of human OVCAR-3 cells after 48 hrs by SRB protein assay; details: OVCAR-3, 48 h
OVCAR-8 = experiment: Growth inhibition of human OVCAR8 cells after 48 hrs by SRB protein assay; details: OVCAR-8, 48 h
SK-OV-3 = experiment: Growth inhibition of human SK-OV-3 cells after 48 hrs by SRB protein assay; details: SK-OV-3, 48 h
ACHN = experiment: Growth inhibition of human ACHN cells after 48 hrs by SRB protein assay
CAKI-1 = experiment: Growth inhibition of human CAKI1 cells after 48 hrs by SRB protein assay; details: CAKI-1, 48 h
RXF 393 = experiment: Growth inhibition of human RXF393 cells after 48 hrs by SRB protein assay; details: RXF 393, 48 h
SN12C = experiment: Growth inhibition of human SN12C cells after 48 hrs by SRB protein assay
UO-31 = experiment: Growth inhibition of human UO31 cells after 48 hrs by SRB protein assay; details: UO-31, 48 h
PC-3 = experiment: Growth inhibition of human PC3 cells after 48 hrs by SRB protein assay; details: PC-3, 48 h
DU-145 = experiment: Growth inhibition of human DU145 cells after 48 hrs by SRB protein assay; details: DU-145, 48 h
MCF7 = experiment: Growth inhibition of human MCF7 cells after 48 hrs by SRB protein assay; details: MCF7, 48 h
MDA-MB-231 = experiment: Growth inhibition of MDA-MB-231 cells after 48 hrs by SRB protein assay; details: Homo sapiens, MDA-MB-231, 48 h
Hs-578T = experiment: Growth inhibition of human HS578T cells after 48 hrs by SRB protein assay
MDA-MB-435 = experiment: Growth inhibition of human MDA-MB-435 cells after 48 hrs by SRB protein assay; details: MDA-MB-435, 48 h
SK-MEL-5 = experiment: Growth inhibition of human SK-MEL-5 cells after 48 hrs by SRB protein assay; details: SK-MEL-5, 48 h
BT-549 = experiment: Growth inhibition of human BT549 cells after 48 hrs by SRB protein assay; details: BT-549, 48 h
T47D = experiment: Growth inhibition of human T47D cells after 48 hrs by SRB protein assay
OVCAR-5 = experiment: Growth inhibition of human OVCAR5 cells after 48 hrs by SRB protein assay; details: OVCAR-5, 48 h

GI50 (MOLT-4): 2340 nM | GI50 (RPMI-8226): 2820 nM | GI50 (A549): 6.17 µM | GI50 (NCI-H23): 3.39 µM | GI50 (NCI-H460): 15.8 µM | GI50 (NCI-H522): 5.25 µM | GI50 (COLO 205): 5.13 µM | GI50 (HCC 2998): 3.47 µM | GI50 (HCT-116): 3.24 µM | GI50 (HT-29): 6.03 µM | GI50 (SW-620): 3.98 µM | GI50 (U-251): 3.63 µM | GI50 (SK-MEL-2): 20.9 µM | GI50 (OVCAR-3): 3.24 µM | GI50 (OVCAR-8): 2290 nM | GI50 (SK-OV-3): 12.9 µM | GI50 (ACHN): 1580 nM | GI50 (PC-3): 4.27 µM | GI50 (DU-145): 2880 nM | GI50 (MCF7): 13.2 µM | GI50 (MDA-MB-231): 3.24 µM | GI50 (MDA-MB-435): 3.31 µM | GI50 (SK-MEL-5): 2950 nM | GI50 (BT-549): 10 µM | GI50 (T47D): 5.25 µM | GI50 (OVCAR-5): 5.5 µM
Structure (SMILES): O=C(Cc1csc2nc(-c3ccc(Br)cc3)cn12)N/N=C/c1ccccc1O
TGI (MOLT-4; read-out: Log TGI (converted)): 10.7 µM | TGI (RPMI-8226; read-out: Log TGI (converted)): 20.9 µM | TGI (A549; read-out: Log TGI (converted)): 24 µM | GI50 (EKVX): 3.89 µM | TGI (EKVX; read-out: Log TGI (converted)): 19.1 µM | TGI (NCI-H23; read-out: Log TGI (converted)): 14.1 µM | TGI (NCI-H460; read-out: Log TGI (converted)): > 100 µM | TGI (NCI-H522; read-out: Log TGI (converted)): 26.9 µM | TGI (COLO 205; read-out: Log TGI (converted)): 22.9 µM | TGI (HCC 2998; read-out: Log TGI (converted)): 12.6 µM | TGI (HCT-116; read-out: Log TGI (converted)): 12.3 µM | TGI (HT-29; read-out: Log TGI (converted)): 19.1 µM | GI50 (KM12): 3.63 µM | TGI (KM12; read-out: Log TGI (converted)): 17 µM | TGI (SW-620; read-out: Log TGI (converted)): 17.4 µM | GI50 (SF-539): 3.55 µM | TGI (SF-539; read-out: Log TGI (converted)): 11.7 µM | GI50 (SNB-75): 12.9 µM | TGI (SNB-75; read-out: Log TGI (converted)): 32.4 µM | TGI (U-251; read-out: Log TGI (converted)): 15.1 µM | GI50 (M14): 2570 nM | TGI (M14; read-out: Log TGI (converted)): 7.76 µM | TGI (SK-MEL-2; read-out: Log TGI (converted)): 53.7 µM | GI50 (UACC-257): 3.72 µM | TGI (UACC-257; read-out: Log TGI (converted)): 11.5 µM | GI50 (UACC-62): 2090 nM | TGI (UACC-62; read-out: Log TGI (converted)): 7.24 µM | GI50 (IGROV-1): 1050 nM | TGI (IGROV-1; read-out: Log TGI (converted)): 11.5 µM | TGI (OVCAR-3; read-out: Log TGI (converted)): 15.1 µM | TGI (OVCAR-8; read-out: Log TGI (converted)): 12.3 µM | TGI (SK-OV-3; read-out: Log TGI (converted)): 30.2 µM | TGI (ACHN; read-out: Log TGI (converted)): 6.31 µM | GI50 (CAKI-1): 398 nM | TGI (CAKI-1; read-out: Log TGI (converted)): 2400 nM | GI50 (RXF 393): 38 µM | TGI (RXF 393; read-out: Log TGI (converted)): 63.1 µM | GI50 (SN12C): 3.31 µM | TGI (SN12C; read-out: Log TGI (converted)): 15.8 µM | GI50 (UO-31): 7.08 µM | TGI (UO-31; read-out: Log TGI (converted)): > 100 µM | TGI (PC-3; read-out: Log TGI (converted)): 16.6 µM | TGI (DU-145; read-out: Log TGI (converted)): 13.8 µM | TGI (MCF7; read-out: Log TGI (converted)): > 100 µM | TGI (MDA-MB-231; read-out: Log TGI (converted)): 17 µM | GI50 (Hs-578T): 13.5 µM | TGI (Hs-578T; read-out: Log TGI (converted)): 42.7 µM | TGI (MDA-MB-435; read-out: Log TGI (converted)): 13.5 µM | TGI (SK-MEL-5; read-out: Log TGI (converted)): 10.7 µM | TGI (BT-549; read-out: Log TGI (converted)): 22.4 µM | TGI (T47D; read-out: Log TGI (converted)): 23.4 µM | TGI (OVCAR-5; read-out: Log TGI (converted)): 31.6 µM
